Data on 6 molecules can be found in ChEMBL document CHEMBL4311957, “Recent advances in natural antifungal flavonoids and their derivatives” (Bioorg Med Chem Lett, 2019).

SMILES strings stand for the structures. In brackets after ≈: the same amount, converted by molar mass.

The test system of assay [1] is Cryptococcus neoformans. Description: Antifungal activity against Cryptococcus neoformans ATCC 90112 after 48 hrs in presence of AmB by CLSI-based method. Type of assay: functional. The conditions noted are these: ATCC 90112, 48 h.
Assay [2] relates to Cryptococcus neoformans. The assay is described as follows: Antifungal activity against Cryptococcus neoformans ATCC 90112 after 48 hrs by CLSI-based method. Type of assay: functional. Conditions: ATCC 90112, 48 h.
Assay [3] concerns Trichophyton rubrum. The assay is described as follows: Antifungal activity against Trichophyton rubrum deltaTruMDR2 by CLSI-based microdilution method. It counts as functional. On the technique in general: In broth dilution the organism is exposed to a series of concentrations in liquid medium.
Assay [4] deals with Trichophyton rubrum. Description: Antifungal activity against Trichophyton rubrum ATCC MYA3108 by CLSI-based microdilution method. Type of assay: functional.
A short description of assay [5]: Inhibition of fatty acid synthase in Trichophyton rubrum ATCC MYA3108.
A short description of assay [6]: Inhibition of fatty acid synthase in Trichophyton rubrum deltaTruMDR2.
Assay [7] deals with Candida parapsilosis. The assay is described as follows: Antifungal activity against Candida parapsilosis 96 by microdilution method. Type of assay: functional. Conditions: Lodderomyces parapsilosis.
Assay [8] deals with Nakaseomyces glabratus. Description: Antifungal activity against Candida glabrata 531 by microdilution method. It counts as functional.
For assay [9], the system named is Candida albicans. Description: Antifungal activity against Candida albicans 498 by microdilution method. It counts as functional.
The subject of assay [10] is Pichia kudriavzevii. Description: Antifungal activity against Candida krusei 168 by microdilution method. Type of assay: functional.
Assay [11] deals with Candida tropicalis. Description: Antifungal activity against Candida tropicalis CCC 131-2000 after 48 hrs by CLSI-based broth microdilution method. The conditions noted are these: CCC 131-2000, 48 h. Type of assay: functional.
The test system of assay [12] is Candida albicans. Description: Antifungal activity against Candida albicans ATCC 10231 by microdilution method. Type of assay: functional.
Assay [13] relates to Cryptococcus neoformans. The assay is described as follows: Antifungal activity against Cryptococcus neoformans by microdilution method. Type of assay: functional.
Assay [14] has as its system Nakaseomyces glabratus. Description: Antifungal activity against Candida glabrata 493 by microdilution method. Type of assay: functional.
The subject of assay [15] is Nakaseomyces glabratus. The assay is described as follows: Antifungal activity against Candida glabrata 587 by microdilution method. It counts as functional.
Assay [16] deals with Nakaseomyces glabratus. Description: Antifungal activity against Candida glabrata 507 by microdilution method. It counts as functional.
Assay [17] deals with Nakaseomyces glabratus. The assay is described as follows: Antifungal activity against Candida glabrata 482 by microdilution method. It counts as functional.
Assay [18] concerns Candida tropicalis. Description: Antifungal activity against Candida tropicalis 166 by microdilution method. It counts as functional.
The subject of assay [19] is Nakaseomyces glabratus. The assay is described as follows: Antifungal activity against Candida glabrata 510 by microdilution method. Type of assay: functional.
Assay [20] has as its system Candida albicans. The assay is described as follows: Antifungal activity against Candida albicans ATCC 10231 after 48 hrs by CLSI-based broth microdilution method. The conditions noted are these: ATCC 10231, 48 h. Type of assay: functional.
Assay [21] has as its system Candida albicans. Description: Antifungal activity against Candida albicans 501 by microdilution method. Type of assay: functional.
In assay [22] the test system is Candida albicans. Description: Antifungal activity against Candida albicans 53 by microdilution method. Type of assay: functional.
The subject of assay [23] is Candida albicans. The assay is described as follows: Synergistic antifungal activity against FLC-resistant Candida albicans after 24 to 72 hrs by checkerboard microbroth dilution method. Type of assay: functional.
Assay [24] concerns Nakaseomyces glabratus. The assay is described as follows: Synergistic antifungal activity against FLC-resistant Candida glabrata ATCC1182 after 24 to 72 hrs in presence of FLC by checkerboard microbroth dilution method. It counts as functional.
In assay [25] the test system is Cryptococcus neoformans. The assay is described as follows: Synergistic antifungal activity against FLC-resistant Cryptococcus neoformans 32609 after 24 to 72 hrs by checkerboard microbroth dilution method. Type of assay: functional.
For assay [26], the system named is Pichia kudriavzevii. Description: Synergistic antifungal activity against FLC-resistant Candida krusei ATCC2340 after 24 to 72 hrs by checkerboard microbroth dilution method. Type of assay: functional.
For assay [27], the system named is Nakaseomyces glabratus. The assay is described as follows: Synergistic antifungal activity against FLC-resistant Candida glabrata ATCC1182 after 24 to 72 hrs by checkerboard microbroth dilution method. It counts as functional.
Assay [28] concerns Candida albicans. The assay is described as follows: Synergistic antifungal activity against FLC-resistant Candida albicans after 24 to 72 hrs in presence of FLC by checkerboard microbroth dilution method. It counts as functional.
Assay [29] deals with Candida tropicalis. The assay is described as follows: Synergistic antifungal activity against FLC-resistant Candida tropicalis 2718 after 24 to 72 hrs by checkerboard microbroth dilution method. Type of assay: functional.
Assay [30] concerns Candida parapsilosis. Description: Synergistic antifungal activity against FLC-resistant Candida parapsilosis ATCC 22019 after 24 to 72 hrs in presence of FLC by checkerboard microbroth dilution method. Type of assay: functional. The conditions noted are these: Lodderomyces parapsilosis.
The subject of assay [31] is Candida tropicalis. Description: Synergistic antifungal activity against FLC-resistant Candida tropicalis 2718 after 24 to 72 hrs in presence of FLC by checkerboard microbroth dilution method. It counts as functional.
For assay [32], the system named is Pichia kudriavzevii. The assay is described as follows: Synergistic antifungal activity against FLC-resistant Candida krusei ATCC2340 after 24 to 72 hrs in presence of FLC by checkerboard microbroth dilution method. Type of assay: functional.
Assay [33] concerns Cryptococcus neoformans. Description: Synergistic antifungal activity against FLC-resistant Cryptococcus neoformans 32609 after 24 to 72 hrs in presence of FLC by checkerboard microbroth dilution method. It counts as functional.
The test system of assay [34] is Candida parapsilosis. Description: Synergistic antifungal activity against FLC-resistant Candida parapsilosis ATCC 22019 after 24 to 72 hrs by checkerboard microbroth dilution method. Type of assay: functional. Conditions: Lodderomyces parapsilosis.
Assay [35] has as its system Trichophyton rubrum. The assay is described as follows: Antifungal activity against Trichophyton rubrum KCTC 6345 by ELISA. Type of assay: functional. Background: ELISA stands for enzyme-linked immunosorbent assay.
The next assay deals with Malassezia furfur. Description: Antifungal activity against Malassezia furfur KCTC 7744 by ELISA. Type of assay: functional.
Assay [36] concerns Candida parapsilosis. Description: Antifungal activity against Candida parapsilosis ATCC 22019 by ELISA. It counts as functional. Conditions: Lodderomyces parapsilosis.
The subject of assay [37] is Candida albicans. Description: Antifungal activity against Candida albicans ATCC 90028 by ELISA. Type of assay: functional.
The next assay relates to Trichosporon beigelii. The assay is described as follows: Antifungal activity against Trichosporon beigelii KCTC 7707 by ELISA. It counts as functional.
For assay [38], the system named is Candida tropicalis. Description: Antifungal activity against FLC-resistant Candida tropicalis in presence of FLC. Type of assay: functional.
The test system of assay [39] is Candida tropicalis. The assay is described as follows: Antifungal activity against FLC-resistant Candida tropicalis. It counts as functional.
The test system of assay [40] is Cryptococcus neoformans. Description: Antifungal activity against Cryptococcus neoformans by CLSI-based microdilution method. Type of assay: functional.

`COc1cc2oc(-c3ccc(O)c(O)c3)cc(=O)c2c(O)c1O`: the MIC came to 1 µg/mL in the assay with Cryptococcus neoformans [1] and 3.9 µg/mL (≈ 12.3 µM) with Cryptococcus neoformans [2].

As for `O=C(/C=C/c1ccccc1)c1ccccc1` [CHALCONE], the MIC in the assay on Trichophyton rubrum [3] is 1.9 µg/mL (≈ 9.12 µM); against Trichophyton rubrum [4], 7.5 µg/mL (≈ 36 µM). The IC50 in [5] turned out to be 68.23 µg/mL (≈ 328 µM); in assay [6], 17.1 µg/mL (≈ 82.1 µM).

`O=c1c(O)c(-c2ccccc2)oc2cc(O)cc(O)c12` [GALANGIN]: the minimal inhibitory concentration (MIC) against Candida parapsilosis [7] is above 83 µg/mL; against Trichophyton rubrum [3], above 1000 µg/mL; in the assay with Trichophyton rubrum [4], above 1000 µg/mL; with Nakaseomyces glabratus [8] it was 15.6 to 62.5 µg/mL (≈ 57.7 to 231 µM); in the assay with Candida albicans [9] it was above 83 µg/mL; against Pichia kudriavzevii [10] it was above 83 µg/mL. The MIC is 31.2 µg/mL (≈ 115 µM) in the assay on Candida tropicalis [11]; above 83 µg/mL with Candida albicans [12]; 31.2 µg/mL (≈ 115 µM) against Cryptococcus neoformans [13]; 15.6 to 62.5 µg/mL (≈ 57.7 to 231 µM) against Nakaseomyces glabratus [14]; 15.6 to 62.5 µg/mL (≈ 57.7 to 231 µM) with Nakaseomyces glabratus [15]; 15.6 to 62.5 µg/mL (≈ 57.7 to 231 µM) against Nakaseomyces glabratus [16]. The MIC against Nakaseomyces glabratus [17] was 15.6 to 62.5 µg/mL (≈ 57.7 to 231 µM); against Candida tropicalis [18], above 83 µg/mL; in the assay with Nakaseomyces glabratus [19], 15.6 to 62.5 µg/mL (≈ 57.7 to 231 µM); in the assay with Candida albicans [20], 31.2 µg/mL (≈ 115 µM); in the assay on Candida albicans [21], above 83 µg/mL; in the assay on Candida albicans [22], above 83 µg/mL.

Take `CC1(C)C=Cc2c(ccc3c2OC[C@@H](c2ccc(O)cc2O)C3)O1` [GLABRIDIN]: the MIC was 32 µg/mL in the assay on Candida albicans [23]; 1 to 16 µg/mL in the assay with Nakaseomyces glabratus [24]; 16 µg/mL in the assay with Cryptococcus neoformans [25]; 16 to 64 µg/mL in the assay on Pichia kudriavzevii [26]; 64 µg/mL with Nakaseomyces glabratus [27]; 64 µg/mL in the assay with Candida albicans [28]. Besides, the MIC with Candida tropicalis [29] is 64 µg/mL; in the assay on Candida parapsilosis [30], 1 to 16 µg/mL; in the assay on Candida tropicalis [31], 1 to 16 µg/mL; with Pichia kudriavzevii [32], 1 to 16 µg/mL; in the assay on Cryptococcus neoformans [33], 16 to 64 µg/mL; in the assay on Candida parapsilosis [34], 64 µg/mL.

Regarding `O=c1c(O[C@@H]2O[C@H](CO)[C@@H](O)[C@H](O)[C@H]2O)c(-c2ccc(O)c(O)c2)oc2cc(O)cc(O)c12` [ISOQUERCETIN], the MIC in the assay on Trichophyton rubrum [35] was 2.5 µg/mL (≈ 5.38 µM); against Malassezia furfur it was 2.5 to 5 µg/mL (≈ 5.38 to 10.8 µM); with Candida parapsilosis [36], 2.5 µg/mL (≈ 5.38 µM); with Candida albicans [37], 2.5 µg/mL (≈ 5.38 µM); with Trichosporon beigelii it was 5 µg/mL (≈ 10.8 µM).

As to `O=c1c(O)c(-c2ccc(O)c(O)c2)oc2cc(O)cc(O)c12` [QUERCETIN], the MIC in the assay on Candida parapsilosis [7] was above 83 µg/mL; with Trichophyton rubrum [3], 125 µg/mL (≈ 414 µM); against Trichophyton rubrum [4], 125 µg/mL (≈ 414 µM); in the assay on Nakaseomyces glabratus [8] it was 7.8 to 15.8 µg/mL (≈ 25.8 to 52.3 µM); against Candida albicans [9], above 83 µg/mL; against Pichia kudriavzevii [10], above 83 µg/mL. For the same molecule, the MIC in the assay on Candida albicans [12] was above 83 µg/mL; in the assay on Candida tropicalis [38], 16 µg/mL; against Nakaseomyces glabratus [14] it was 7.8 to 15.8 µg/mL (≈ 25.8 to 52.3 µM); in the assay on Nakaseomyces glabratus [15], 7.8 to 15.8 µg/mL (≈ 25.8 to 52.3 µM); against Candida tropicalis [39], at most 0.5 µg/mL; against Nakaseomyces glabratus [16], 7.8 to 15.8 µg/mL (≈ 25.8 to 52.3 µM). For the same molecule, the MIC is 7.8 to 15.8 µg/mL (≈ 25.8 to 52.3 µM) against Nakaseomyces glabratus [17]; above 125 µg/mL in the assay with Cryptococcus neoformans [40]; above 83 µg/mL in the assay with Candida tropicalis [18]; 7.8 to 15.8 µg/mL (≈ 25.8 to 52.3 µM) against Nakaseomyces glabratus [19]; above 83 µg/mL in the assay with Candida albicans [21]; above 83 µg/mL with Candida albicans [22].

Usually MIC stands for the smallest concentration in the dilution series that meets the test's criterion for growth inhibition. Broadly, the IC50 is the concentration at which inhibition is half-maximal. A lower IC50 goes with greater potency.
